Test results as given in PMC11493595, “Stretching the structural envelope of imatinib to reduce β-amyloid production by modulating both β- and γ-secretase cleavages of APP” (Frontiers in Chemistry, 2024).
Read-outs that look alike come from different tables or passages of the source.

Assays:
[1] = system: N2a695 cells; test: Aβ38, Aβ40, Aβ42 in conditioned media of N2a695 cells, MSD ELISA; format: cell-based; details: N2a695 cell supernatant, 5 h, single experiment
Procedure: (§1) N2a695 were cultured in 1:1 OptiMem Reduced Serum Media (Life Technologies): Dulbecco’s Modified Eagle Medium ([+] 4.5 g/L D-glucose [+] L-Glutamine; [−] Sodium pyruvate (Life Technologies) supplemented with 5% fetal bovine serum, 0.4% Penstrep and 0.4% Geneticin and incubated at 37°C in 5% CO2. Antibodies were obtained from The Laboratory of Molecular and Cellular Neuroscience at The Rockefeller University. Human Aβ40 and Aβ42 ELISA plates (Life Technologies) and Plus MSD (Mesoscale Discovery) plates for Aβ Peptide (Aβ38, Aβ40 and Aβ42) Panel 1 (6E10) Kit (Catalog number K15200G) were obtained from Thermo Fisher, Life Technologies and Meso Scale Discovery.
(§2) N2a695 cells were used to screen all new compounds and in the follow-up studies with compounds found active in the preliminary screen. In a typical experiment, 6-well tissue culture plates (Corning) were seeded at 4.0 × 10^5–4.5 × 10^5 N2a695 cells/mL, 2 mL/well for overnight incubation. When cells were >95% confluent, media were exchanged with fresh media containing 10 µM solutions of compounds or DMSO carrier alone and cells were incubated at 37°C in 5% CO2 for 5 h. Culture media were collected and soluble Aβ concentrations in the media were determined by ELISA or MSD plates for human Aβ peptides as per manufacturer instructions. Signals for Aβ were measured using Perkin Elmer Envision and SQ120 MSD ELISA reader. Follow-up studies with N2a695 cells were performed similarly.
Similarly, we evaluated all IMTi-1 and IMTi-2 analogs, including the Boc-protected compounds, using N2a695 cells. […] To further examine the activities of the active analogs and whether IMTi’s has any bias on amyloidogenic vs. nonamyloidogenic cleavage of APP, we retested dozens of IMTi-1 and 2 analogs, including several found active in the screening assay and some tested for the first time using N2a695 cells as above, and performed MSD ELISA of the conditioned media to measure Aβ40, Aβ38, and Aβ42 peptides simultaneously.

[2] = system: N2a695 cells; test: as above; format: cell-based; details: N2a695 cell supernatant, 5 h, single experiment; remark: listed apart in the source
[3] = system: β- and γ-cleavages of APP; test: Aβ in N2a cells transiently transfected with APP-FL or APP99 (APP-βCTF): BACE vs γ-secretase cleavage; format: cell-based; details: N2a cells transiently transfected with APP695 (APP-FL) or APP C99, 5 h
Procedure: To determine effects of compounds on BACE1 vs. GS inhibition, we used N2a cells transiently transfected with full length APP (APP-FL) or with APP99 (APP-βCTF) as described previously ([Netzer et al., 2017]; [Sun et al., 2019]). After 48 h, media were removed and fresh media containing compound 1a and analogs were added. Following 5 h of incubation, cell supernatants were collected, and analyzed using MSD-ELISA for Aβ and sAPPα and western blot for sAPPβ.
We focused on IMTi-1 and its analogs 1d, 1f and 1p. […] To test whether these compounds lower Aβ levels by affecting the BACE and/or γ-secretase cleavages, we transfected wild-type (wt) cells with APP-FL and APP βCTF (C99), respectively, and incubated the cells with IMTi-1 (isomer) and analogs 1d, 1f and 1p. We used BACE inhibitor, MK8931, and γ-secretase inhibitor, DAPT, as controls and performed the experiments and processed the results as described previously ([Sun et al., 2019]).

[4] = In vivo brain permeability and retention, LC-MS/MS of brain and plasma; parameters: species or system C57BL/6J WT mice; details: for concentration at 4 h: C57BL/6J, mouse, ip, 2 months old WT mice, 50 mg/kg i.p., 4 h after injection, mesylate salt
Procedure: All procedures involving animals were approved by The Rockefeller University Institutional Animal Care and Use Committee and were in accordance with the National Institutes of Health guidelines. […] Mice were euthanized 4 h post drug administration and brain hemispheres and plasma were harvested and collected in pre-weighted tubes and snap-frozen in liquid nitrogen. To measure brain and plasma concentrations of the specific compounds, mouse brain tissue was homogenized and extracted using Ethanol, and plasma samples were extracted using Acetonitrile. Concentration of the drug and metabolites in brain and in plasma was determined by LC-MS/MS analysis.
After tubes were weighed to calculate brain weight and thawed to room temperature, 1 mL of EtOH (200 Proof) was added to the microcentrifuge tubes containing the harvested right brain hemispheres. 10 μL of 1 µM internal standard (ABG190, a synthetic analog of 1a) was added to each tube and samples were sonicated to homogeneity (∼2 min). Tubes were shaken at 40 min at room temperature (1K RPM) and centrifuged for 8 min at 13K RPM. The supernatant (0.9 mL) was transferred to a new collection tube and 0.5 mL EtOH was added to the pellet for a second round of extraction as described above. 600 μL of the supernatant was combined with the first collection before samples were submitted for LCMS-MS analysis ([Sun et al., 2019]).
300 μL of acetonitrile was added to collected blood samples. 10 μL of 1 µM internal standard (ABG190) was added to each tube and samples were sonicated to homogeneity (∼2 min). Tubes were […] at 13 K RPM for 9 min 300 μL of the supernatant was collected and combined with 500 µL of 5 mM ammonium formate before samples were submitted for LCMS-MS analysis ([Sun et al., 2019]).

[5] = system: N2a695 cells; test: Screening of Aβ production in N2a695 cells (Aβ ELISA of cell supernatants); format: cell-based; details: N2a695 cells; for Aβ40 levels / Aβ production in the screen (Fig. S1): 10 µM
Procedure: as §1, §2
Specifically, we exposed N2a695 cells to increasing concentrations of each compound and measured the production of Aβ38, 40, and 42. […] Remarkably, this occurs for all Aβ peptides tested shorter than 40 amino acids (Figure 2C). Moreover, for some compounds that modulate γ-secretase activity most conspicuously at 5 μM, this effect vanishes at 10 μM, relative to controls (Figure 2B, C). […]

| SMILES | activity at 10 µM ([1]; read-out: % Aβ38 of DMSO ctrl) [%] | activity at 10 µM ([1]; read-out: % Aβ40 of DMSO ctrl) [%] | activity at 10 µM ([1]; read-out: % Aβ42 of DMSO ctrl) [%] | activity at 5 µM ([2]; read-out: % Aβ38 of DMSO ctrl) [%] | activity at 5 µM ([2]; read-out: % Aβ40 of DMSO ctrl) [%] | activity at 5 µM ([2]; read-out: % Aβ42 of DMSO ctrl) [%] | BACE and γ-secretase cleavage of APP, Aβ levels [3] | Brain exposure ([4]; 2 months old mice, 4 h post administration) | concentration at 4 h ([4]; brain, read-out: Brain concentration) [ng/g] | concentration at 4 h ([4]; plasma, read-out: Plasma concentration) [ng/mL] | Aβ40 levels [5] [%] | Activity in Aβ production assays [5] | Aβ production in the screen (Fig. S1) [5] |
| --- | --- | --- | --- | --- | --- | --- | --- | --- | --- | --- | --- | --- | --- |
| Cc1ccccc1Nc1nccc(-c2cncc(NC(=O)c3ccc(C4CCCN(C)C4)cc3)c2)n1 (stereo not drawn) [Compound 1n] | 95 | 42 | 38 | 112 | 63 | 56 |  |  |  |  |  |  |  |
| Cc1ccccc1Nc1nccc(-c2cccc(NC(=O)c3ccc(CCN(C)C)cc3)c2)n1 [Compound 1f] | 80 | 29 | 26 | 113 | 52 | 45 | lower BACE and γ-secretase cleavage of APP | high brain exposure | 92 | 550 |  |  |  |
| Cc1ccccc1Nc1nccc(-c2cccc(NC(=O)c3ccc(N4CCN(C)CC4)cc3)c2)n1 [Compound 1d] | 22 | 14 | 11 | 60 | 34 | 28 | lower BACE and γ-secretase cleavage of APP |  |  |  |  |  |  |
| Cc1ccc(Nc2nccc(-c3ccc(CN4CCN(C)CC4)cc3)n2)cc1NC(=O)c1cccnc1 [IMTi-2] |  |  |  |  |  |  |  |  |  |  | 68 | active |  |
| Cc1ccccc1Nc1nccc(-c2cncc(NC(=O)c3ccc(CNC4CCCCC4)cc3)c2)n1 [Compound 1j] | 123 | 73 | 65 | 112 | 83 | 75 |  |  |  |  |  |  |  |
| Cc1ccc(Nc2nccc(-c3ccc(CNC4CCCCC4)cc3)n2)cc1NC(=O)c1cccnc1 [Compound 2b] | 74 | 71 | 74 | 93 | 90 | 88 |  |  |  |  |  |  |  |
| Cc1ccccc1Nc1nccc(-c2cccc(NC(=O)c3ccc(CN(C(=O)OC(C)(C)C)C4CCCCC4)cc3)c2)n1 [Compound 1k-Boc] |  |  |  |  |  |  |  |  |  |  |  |  | increase in Aβ production |
| Cc1ccccc1Nc1nccc(-c2cccc(NC(=O)c3ccc(CNCC(C)(C)C)cc3)c2)n1 [Compound 1i] | 85 | 41 | 46 | 106 | 56 | 58 |  |  |  |  |  |  |  |
| Cc1ccccc1Nc1nccc(-c2cccc(NC(=O)c3ccc(CN4CCN(C)CC4)cc3)c2)n1 [Compound 1a] | 86 | 40 | 35 | 105 | 57 | 49 |  |  |  |  |  |  |  |
| Cc1ccccc1Nc1nccc(-c2cncc(NC(=O)c3ccc(CNCC(C)(C)C)cc3)c2)n1 [Compound 1h] | 80 | 43 | 43 | 106 | 64 | 58 |  |  |  |  |  |  |  |
| Cc1ccccc1Nc1nccc(-c2cncc(NC(=O)c3ccc(CCN(C)C)cc3)c2)n1 [Compound 1e] | 91 | 46 | 44 | 99 | 57 | 54 |  |  |  |  |  |  |  |
| Cc1ccccc1Nc1nccc(-c2cncc(NC(=O)c3ccc(C4CCCNC4)cc3)c2)n1 (stereo not drawn) [Compound 1L] | 52 | 21 | 17 | 107 | 48 | 43 |  |  |  |  |  |  |  |
| Cc1ccc(CN2CCN(Cc3ccc(C(=O)Nc4cccnc4)cc3)CC2)cc1Nc1ncccn1 [IMTi-3] |  |  |  |  |  |  |  |  |  |  | 93 | inactive |  |
| Cc1ccccc1Nc1nccc(-c2cccc(NC(=O)c3ccc(CNC4CCCCC4)cc3)c2)n1 [Compound 1k] | 92 | 38 | 38 | 120 | 60 | 56 |  |  |  |  |  |  |  |
| Cc1ccccc1Nc1nccc(-c2cncc(NC(=O)c3ccc(CN4CCNCC4)cc3)c2)n1 [Compound 1b] | 61 | 34 | 33 | 95 | 56 | 53 |  |  |  |  |  |  |  |
| CN(C)CCc1ccc(C(=O)Nc2cccc(-c3ccnc(Nc4cccnc4)n3)c2)cc1 [Compound 1p] | 24 | 18 | 15 | 58 | 41 | 38 | lower BACE and γ-secretase cleavage of APP |  |  |  |  |  |  |
| Cc1ccccc1Nc1nccc(-c2cccc(NC(=O)c3ccc(CN(CC(C)(C)C)C(=O)OC(C)(C)C)cc3)c2)n1 [Compound 1i-Boc] |  |  |  |  |  |  |  |  |  |  |  |  | increase in Aβ production |
